Reference: paper PMC5218480 (PLoS ONE, 2017)

Tested on: MV-4-11 cells
Assay: Gene expression microarray analysis (Affymetrix PrimeView) and GSEA
Format: cell-based, human
Set-up: RFU PODN (11730768_x_at) / Fold change /veh PODN (11730768_x_at) / RFU LINC00158 (11744669_a_at) / Fold change /veh LINC00158 (11744669_a_at) / RFU DUSP10 (11751237_a_at) / Fold change /veh DUSP10 (11751237_a_at) / RFU ID3 (11757404_x_at) / Fold change /veh ID3 (11757404_x_at) / RFU PLEKHG5 (11737974_s_at) / Fold change /veh PLEKHG5 (11737974_s_at) / RFU LRRC4B (11730491_at) / Fold change /veh LRRC4B (11730491_at) / RFU GIMAP4 (11747438_a_at) / Fold change /veh GIMAP4 (11747438_a_at) / RFU KRT8 (11758183_x_at) / Fold change /veh KRT8 (11758183_x_at) / RFU CNN1 (11734310_a_at) / Fold change /veh CNN1 (11734310_a_at) / RFU VPS37D (11726825_at) / Fold change /veh VPS37D (11726825_at) / RFU C10orf10 (11716522_x_at) / Fold change /veh C10orf10 (11716522_x_at) / RFU KIR2DL2 /// KIR2DL4 /// KIR2DL5A /// KIR2DL5B /// KIR2DS1 /// KIR2DS2 /// KIR2DS3 /// KIR2DS4 /// KIR3DL3 /// KIR3DL3 /// KIR3DS1 (11738374_at) / Fold change /veh KIR2DL2 /// KIR2DL4 /// KIR2DL5A /// KIR2DL5B /// KIR2DS1 /// KIR2DS2 /// KIR2DS3 /// KIR2DS4 /// KIR3DL3 /// KIR3DL3 /// KIR3DS1 (11738374_at) / RFU C1QL1 (11718748_at) / Fold change /veh C1QL1 (11718748_at) / RFU TMPRSS4 (11747572_a_at) / Fold change /veh TMPRSS4 (11747572_a_at) / RFU HAMP (11756126_x_at) / Fold change /veh HAMP (11756126_x_at) / RFU RNFT2 (11725882_a_at) / Fold change /veh RNFT2 (11725882_a_at) / RFU NR4A2 (11747474_a_at) / Fold change /veh NR4A2 (11747474_a_at) / RFU ABCC12 (11746883_a_at) / Fold change /veh ABCC12 (11746883_a_at) / RFU TMEM136 (11760407_x_at) / Fold change /veh TMEM136 (11760407_x_at) / RFU CLDN22 /// WWC2 (11732394_at) / Fold change /veh CLDN22 /// WWC2 (11732394_at) / RFU HLA-DPB1 (11760878_x_at) / Fold change /veh HLA-DPB1 (11760878_x_at) / RFU SPINT1 (11716480_a_at) / Fold change /veh SPINT1 (11716480_a_at) / RFU GAP43 (11754022_s_at) / Fold change /veh GAP43 (11754022_s_at) / RFU A4GNT (11735810_at) / Fold change /veh A4GNT (11735810_at) / RFU PRB3 (11715151_x_at) / Fold change /veh PRB3 (11715151_x_at) / RFU TUBB4B (11761932_at) / Fold change /veh TUBB4B (11761932_at) / RFU CAPN14 (11732068_a_at) / Fold change /veh CAPN14 (11732068_a_at) / RFU TMCC2 (11721928_a_at) / Fold change /veh TMCC2 (11721928_a_at) / RFU IRGQ (11745062_a_at) / Fold change /veh IRGQ (11745062_a_at) / RFU FAM174B (11720279_a_at) / Fold change /veh FAM174B (11720279_a_at) / RFU TMPRSS4 (11748680_a_at) / Fold change /veh TMPRSS4 (11748680_a_at) / RFU FAM212B (11763350_a_at) / Fold change /veh FAM212B (11763350_a_at) / RFU PLEKHG5 (11743358_a_at) / Fold change /veh PLEKHG5 (11743358_a_at) / RFU ZSCAN30 (11745921_a_at) / Fold change /veh ZSCAN30 (11745921_a_at) / RFU CMKLR1 (11741424_a_at) / Fold change /veh CMKLR1 (11741424_a_at) / RFU LOC101060620 /// MAPK8IP1 (11723275_at) / Fold change /veh LOC101060620 /// MAPK8IP1 (11723275_at) / RFU SPTSSB (11747773_x_at) / Fold change /veh SPTSSB (11747773_x_at) / RFU PRSS12 (11739890_at) / Fold change /veh PRSS12 (11739890_at) / RFU BIN1 (11741810_x_at) / Fold change /veh BIN1 (11741810_x_at) / RFU WNT11 (11732464_a_at) / Fold change /veh WNT11 (11732464_a_at) / RFU C10orf10 (11716521_a_at) / Fold change /veh C10orf10 (11716521_a_at) / RFU C5orf56 (11738089_at) / Fold change /veh C5orf56 (11738089_at) / RFU CYB561 (11721691_x_at) / Fold change /veh CYB561 (11721691_x_at) / RFU ANKRD19P (11752326_a_at) / Fold change /veh ANKRD19P (11752326_a_at) / RFU OR2T12 /// OR2T33 /// OR2T8 (11738714_s_at) / Fold change /veh OR2T12 /// OR2T33 /// OR2T8 (11738714_s_at) / RFU VCAN (11748164_a_at) / Fold change /veh VCAN (11748164_a_at) / RFU JSRP1 (11732532_at) / Fold change /veh JSRP1 (11732532_at) / RFU KRTAP10-11 (11738290_x_at) / Fold change /veh KRTAP10-11 (11738290_x_at) / RFU MYO3A (11730013_a_at) / Fold change /veh MYO3A (11730013_a_at) / RFU EBF3 (11725865_a_at) / Fold change /veh EBF3 (11725865_a_at) / RFU CAMK2N1 (11719241_x_at) / Fold change /veh CAMK2N1 (11719241_x_at) / RFU C5orf56 (11738088_a_at) / Fold change /veh C5orf56 (11738088_a_at) / RFU OLFML3 (11715873_a_at) / Fold change /veh OLFML3 (11715873_a_at) / RFU LOC100653217 /// NTM (11731650_a_at) / Fold change /veh LOC100653217 /// NTM (11731650_a_at) / RFU MAPK11 (11762145_a_at) / Fold change /veh MAPK11 (11762145_a_at) / RFU FIZ1 (11724087_x_at) / Fold change /veh FIZ1 (11724087_x_at) / RFU OASL (11726364_x_at) / Fold change /veh OASL (11726364_x_at) / RFU SOX15 (11748057_x_at) / Fold change /veh SOX15 (11748057_x_at) / RFU CD79A (11719716_a_at) / Fold change /veh CD79A (11719716_a_at) / RFU HIST1H1D (11736915_at) / Fold change /veh HIST1H1D (11736915_at) / RFU CASKIN2 (11723855_a_at) / Fold change /veh CASKIN2 (11723855_a_at) / RFU LOC730098 (11760151_x_at) / Fold change /veh LOC730098 (11760151_x_at) / RFU OR4N2 (11742367_at) / Fold change /veh OR4N2 (11742367_at) / RFU PRRT2 (11749266_a_at) / Fold change /veh PRRT2 (11749266_a_at) / RFU SNX32 (11753110_a_at) / Fold change /veh SNX32 (11753110_a_at) / RFU CDHR5 (11726645_a_at) / Fold change /veh CDHR5 (11726645_a_at) / RFU RCAN1 (11760418_a_at) / Fold change /veh RCAN1 (11760418_a_at) / RFU FAM167A (11723789_a_at) / Fold change /veh FAM167A (11723789_a_at) / RFU FAM26E (11764081_at) / Fold change /veh FAM26E (11764081_at) / RFU ISYNA1 (11749810_s_at) / Fold change /veh ISYNA1 (11749810_s_at) / RFU ACY1 (11761880_at) / Fold change /veh ACY1 (11761880_at) / RFU 11764098_at / Fold change /veh 11764098_at / RFU SAMD14 (11745864_x_at) / Fold change /veh SAMD14 (11745864_x_at) / RFU NPB (11741838_a_at) / Fold change /veh NPB (11741838_a_at) / RFU TMPRSS6 (11731388_a_at) / Fold change /veh TMPRSS6 (11731388_a_at) / RFU KRTAP10-2 (11738614_at) / Fold change /veh KRTAP10-2 (11738614_at) / RFU ARHGAP8 /// PRR5-ARHGAP8 (11727945_x_at) / Fold change /veh ARHGAP8 /// PRR5-ARHGAP8 (11727945_x_at) / RFU KRTAP5-7 /// NADSYN1 (11734609_at) / Fold change /veh KRTAP5-7 /// NADSYN1 (11734609_at) / RFU RASL12 (11751679_a_at) / Fold change /veh RASL12 (11751679_a_at) / RFU CDKN2B (11736163_a_at) / Fold change /veh CDKN2B (11736163_a_at) / RFU PRF1 (11729649_at) / Fold change /veh PRF1 (11729649_at) / RFU, ZNF638 /// ZNF638-IT1 / Fold change vs veh, ZNF638 /// ZNF638-IT1 / RFU, PANK3 / Fold change vs veh, PANK3 / RFU, SH3YL1 / Fold change vs veh, SH3YL1 / RFU, ZEB2 / Fold change vs veh, ZEB2 / RFU, NRIP1 / Fold change vs veh, NRIP1 / RFU, PTTG1IP / Fold change vs veh, PTTG1IP / RFU, CAPN2 / Fold change vs veh, CAPN2 / RFU, MED14 / Fold change vs veh, MED14 / RFU, SNORA58 / Fold change vs veh, SNORA58 / RFU, C1orf63 / Fold change vs veh, C1orf63 / RFU, LRRFIP1 / Fold change vs veh, LRRFIP1 / RFU, NDUFAF7 / Fold change vs veh, NDUFAF7 / RFU, SLC12A2 / Fold change vs veh, SLC12A2 / RFU, IBTK / Fold change vs veh, IBTK / RFU, ESF1 / Fold change vs veh, ESF1 / Fold change vs veh, TMEM50B / RFU, TAOK1 / Fold change vs veh, TAOK1 / RFU, ACBD3 / Fold change vs veh, ACBD3 / RFU, TMA16 / Fold change vs veh, TMA16 / RFU, RWDD3 / Fold change vs veh, RWDD3 / RFU, BCAT1 / Fold change vs veh, BCAT1 / RFU, EDEM3 / Fold change vs veh, EDEM3 / RFU, TMEM33 / Fold change vs veh, TMEM33 / RFU, WDR75 / Fold change vs veh, WDR75 / RFU, AHCTF1 / Fold change vs veh, AHCTF1 / RFU, TFRC / Fold change vs veh, TFRC / RFU, ZDHHC17 / Fold change vs veh, ZDHHC17 / RFU, NOM1 / Fold change vs veh, NOM1 / RFU, ARL8B / Fold change vs veh, ARL8B / RFU, ZBTB11 / Fold change vs veh, ZBTB11 / RFU, TAMM41 / Fold change vs veh, TAMM41 / RFU, KIAA1704 /// LOC100996395 / Fold change vs veh, KIAA1704 /// LOC100996395 / RFU, ING1 / Fold change vs veh, ING1 / RFU, TRMT61B / Fold change vs veh, TRMT61B / RFU, FUBP3 / Fold change vs veh, FUBP3 / RFU, TP53 / Fold change vs veh, TP53 / RFU, TNKS2 / Fold change vs veh, TNKS2 / RFU, ZFP14 / Fold change vs veh, ZFP14 / RFU, ACTR2 / Fold change vs veh, ACTR2 / RFU, PPP3R1 / Fold change vs veh, PPP3R1 / RFU, PIK3R1 / Fold change vs veh, PIK3R1 / RFU, HNRNPA1 / Fold change vs veh, HNRNPA1 / RFU, RNF170 / Fold change vs veh, RNF170 / RFU, ZNF28 / Fold change vs veh, ZNF28 / RFU, RNGTT / Fold change vs veh, RNGTT / RFU, OGT / Fold change vs veh, OGT / RFU, BRD1 / Fold change vs veh, BRD1 / RFU, MARS / Fold change vs veh, MARS / RFU, ZNF655 / Fold change vs veh, ZNF655 / RFU, FAHD1 / Fold change vs veh, FAHD1 / RFU, BDP1 / Fold change vs veh, BDP1 / RFU, LRRCC1 / Fold change vs veh, LRRCC1 / RFU, ARID1A / Fold change vs veh, ARID1A / RFU, ZNF146 / Fold change vs veh, ZNF146 / RFU, ZNF330 / Fold change vs veh, ZNF330 / RFU, GPN3 / Fold change vs veh, GPN3 / RFU, C9orf123 / Fold change vs veh, C9orf123 / RFU, N4BP2L2 / Fold change vs veh, N4BP2L2 / RFU, ARFIP1 / Fold change vs veh, ARFIP1 / RFU, FAM179B / Fold change vs veh, FAM179B / RFU, BCL10 / Fold change vs veh, BCL10 / RFU, UHRF1BP1L / Fold change vs veh, UHRF1BP1L / RFU, BET1 / Fold change vs veh, BET1 / RFU, CNOT2 / Fold change vs veh, CNOT2 / RFU, ZNF268 / Fold change vs veh, ZNF268 / Fold change vs veh, ZNF507 / RFU, DGCR2 / Fold change vs veh, DGCR2 / RFU, WDSUB1 / Fold change vs veh, WDSUB1 / Fold change vs veh, HSP90B1 /// MIR3652 / RFU, ADSS / Fold change vs veh, ADSS / RFU, GK / Fold change vs veh, GK / RFU, ZNF148 / Fold change vs veh, ZNF148 / RFU, TAF9 / Fold change vs veh, TAF9 / RFU, SLC1A5 / Fold change vs veh, SLC1A5 / RFU, SLMO2 / Fold change vs veh, SLMO2 / RFU, ABCC4 / Fold change vs veh, ABCC4 / RFU, LOC101060439 /// RAP1B / Fold change vs veh, LOC101060439 /// RAP1B / RFU, RFX7 / Fold change vs veh, RFX7 / RFU, GTPBP10 / Fold change vs veh, GTPBP10 / RFU, CNEP1R1 / Fold change vs veh, CNEP1R1 / RFU, BIVM-ERCC5 /// ERCC5 / Fold change vs veh, BIVM-ERCC5 /// ERCC5 / RFU, ILF3 / Fold change vs veh, ILF3 / RFU 11762660_at / Fold change /veh 11762660_at / RFU VCAN (11757783_s_at) / Fold change /veh VCAN (11757783_s_at) / RFU DDX43 (11728927_at) / Fold change /veh DDX43 (11728927_at) / RFU KRT8 (11758188_x_at) / Fold change /veh KRT8 (11758188_x_at) / RFU NKD1 (11759106_at) / Fold change /veh NKD1 (11759106_at) / RFU SRD5A1 (11742802_a_at) / Fold change /veh SRD5A1 (11742802_a_at) / RFU TPSAB1 /// TPSB2 (11721975_s_at) / Fold change /veh TPSAB1 /// TPSB2 (11721975_s_at) / RFU GSTM3 (11746129_a_at) / Fold change /veh GSTM3 (11746129_a_at) / RFU IL23R (11737362_x_at) / Fold change /veh IL23R (11737362_x_at) / RFU TMEM51 (11727254_a_at) / Fold change /veh TMEM51 (11727254_a_at) / RFU PIWIL2 (11732686_x_at) / Fold change /veh PIWIL2 (11732686_x_at) / RFU ORM1 (11744905_x_at) / Fold change /veh ORM1 (11744905_x_at) / RFU CCDC152 (11743942_at) / Fold change /veh CCDC152 (11743942_at) / RFU ECM1 (11717891_a_at) / Fold change /veh ECM1 (11717891_a_at) / RFU IL23R (11748794_a_at) / Fold change /veh IL23R (11748794_a_at) / RFU TNFAIP8L3 (11732012_x_at) / Fold change /veh TNFAIP8L3 (11732012_x_at) / RFU MBOAT4 (11741988_at) / Fold change /veh MBOAT4 (11741988_at) / RFU 11764193_at / Fold change /veh 11764193_at / RFU TMEM53 (11763286_at) / Fold change /veh TMEM53 (11763286_at) / RFU MAGEB2 (11727129_at) / Fold change /veh MAGEB2 (11727129_at) / RFU TMEM200A (11744735_a_at) / Fold change /veh TMEM200A (11744735_a_at) / RFU CCDC152 (11751479_a_at) / Fold change /veh CCDC152 (11751479_a_at) / RFU FAM211A (11726209_a_at) / Fold change /veh FAM211A (11726209_a_at) / RFU RGS16 (11746705_a_at) / Fold change /veh RGS16 (11746705_a_at) / RFU VCAN (11755009_s_at) / Fold change /veh VCAN (11755009_s_at) / RFU RHOB (11743442_s_at) / Fold change /veh RHOB (11743442_s_at) / RFU RGS16 (11720943_a_at) / Fold change /veh RGS16 (11720943_a_at) / RFU RGS16 (11720944_at) / Fold change /veh RGS16 (11720944_at) / RFU, VPS4B / Fold change vs veh, VPS4B / RFU, CREB1 / Fold change vs veh, CREB1 / RFU, DNAJC13 / Fold change vs veh, DNAJC13 / RFU, GNAQ / Fold change vs veh, GNAQ / RFU, CDK5R1 / Fold change vs veh, CDK5R1 / RFU, ZRANB3 / Fold change vs veh, ZRANB3 / RFU, CUL4A / Fold change vs veh, CUL4A / RFU, CCNY / Fold change vs veh, CCNY / RFU, UFL1 / Fold change vs veh, UFL1 / RFU, COG3 / Fold change vs veh, COG3 / RFU, DIAPH2 / Fold change vs veh, DIAPH2 / RFU, SKA2 / Fold change vs veh, SKA2 / RFU, AFF3 / Fold change vs veh, AFF3 / RFU, LMF1 / Fold change vs veh, LMF1 / RFU, IPO11 / Fold change vs veh, IPO11 / RFU, DFFB / Fold change vs veh, DFFB / RFU, FOXP1 / Fold change vs veh, FOXP1 / RFU, CARD8 / Fold change vs veh, CARD8 / RFU, STRN3 / Fold change vs veh, STRN3 / RFU, ADK / Fold change vs veh, ADK / RFU, RASSF2 / Fold change vs veh, RASSF2 / RFU, WIPF1 / Fold change vs veh, WIPF1 / RFU, LARP1B / Fold change vs veh, LARP1B / RFU, RASA1 / Fold change vs veh, RASA1 / RFU, RB1 / Fold change vs veh, RB1 / RFU, PPFIA1 / Fold change vs veh, PPFIA1 / RFU, MAT2A / Fold change vs veh, MAT2A / RFU, CCT5 / Fold change vs veh, CCT5 / RFU, WDR92 / Fold change vs veh, WDR92 / RFU, CUX1 / Fold change vs veh, CUX1 / RFU, TTC7A / Fold change vs veh, TTC7A / RFU, TMEM135 / Fold change vs veh, TMEM135 / RFU, DEPTOR / Fold change vs veh, DEPTOR / RFU, CPM / Fold change vs veh, CPM / RFU, DNAJB6 / Fold change vs veh, DNAJB6 / RFU, CACNA2D3 / Fold change vs veh, CACNA2D3 / RFU, DTX4 / Fold change vs veh, DTX4 / RFU, TFCP2 / Fold change vs veh, TFCP2 / RFU, GMCL1 /// GMCL1P1 / Fold change vs veh, GMCL1 /// GMCL1P1 / RFU, AEBP2 / Fold change vs veh, AEBP2 / RFU, SNHG1 /// SNORD22 /// SNORD25 /// SNORD26 /// SNORD27 /// SNORD28 /// SNORD29 /// SNORD31 / Fold change vs veh, SNHG1 /// SNORD22 /// SNORD25 /// SNORD26 /// SNORD27 /// SNORD28 /// SNORD29 /// SNORD31 / Fold change (Aza/veh), C12orf56 (ProbeSet 11735607_a_at) / Fold change (ACY-1035/veh), C12orf56 (ProbeSet 11735607_a_at) / Fold change (Aza/veh), FGFR1OP (ProbeSet 11751329_s_at) / Fold change (ACY-1035/veh), FGFR1OP (ProbeSet 11751329_s_at) / Fold change (Aza/veh), VPS36 (ProbeSet 11739960_a_at) / Fold change (ACY-1035/veh), VPS36 (ProbeSet 11739960_a_at) / RFU SYPL1 (11715823_x_at) / Fold change /veh SYPL1 (11715823_x_at) / RFU IGFBP7 (11715501_s_at) / Fold change /veh IGFBP7 (11715501_s_at) / RFU REEP3 (11722064_at) / Fold change /veh REEP3 (11722064_at) / RFU IGLL1 (11728026_x_at) / Fold change /veh IGLL1 (11728026_x_at): dose or concentration left out as unconfirmed
Conditions: ProbeSet 11731461_x_at; LIST D

SMILES: Nc1ncn([C@@H]2O[C@H](CO)[C@@H](O)[C@H]2O)c(=O)n1 [azacitidine]
- RFU, CPM: 125.18 RFU
